Counter-ions that a name gives are not always drawn. A value given as a limit tells only on which side of the number the result lay.

The first data set addresses T1, glycine site of the NMDA receptor (Rattus norvegicus, UniProt P35439).
T1 construct: from tissue; host or cells: rat brain membranes
Briefly: Displacement of [3H]-L-689,560 from rat brain membranes (NMDA glycine site binding). Conditions: [3H]-L-689,560 method, tris-acetate buffer pH 7.4, 90 minutes, read-out: IC50 (nM), binding affinity for the glycine site of the NMDA receptor. As for the experimental part:
J. Pharm., 104, 74 (1991).
The binding affinities of a selection of the compounds of the Examples for the glycine site of the NMDA receptor were measured using the [^3H]-L-689,560 method described on page 20 of the description.
Consider `Cn1ncnc1-c1c(Cl)c(Cl)cc2[nH]c(=O)c(=O)[nH]c12` [Example 20], for which the IC50 is 19 nM.

Take `Cc1nnc(-c2ccccc2)n1-c1c(Cl)c(Cl)cc2[nH]c(=O)c(=O)[nH]c12` [Example 73]: the IC50 is 4 nM.

Test system in a further data set: not given
Experiment: not given
Details: not given
With `Cc1nnc(-c2ccccc2)n1-c1c(Cl)c(Cl)cc2[nH]c(=O)c(=O)[nH]c12` (as salt: HCl) (hydrate or solvate) [Example 73], the melting point is 274 to 276 °C.

`O=C(O)Cn1nnnc1-c1c(Cl)c(Cl)cc2[nH]c(=O)c(=O)[nH]c12` (hydrate or solvate) [Example 8, 6,7-dichloro-5-(1-carboxymethyltetrazol-5-yl)-2,3(1H,4H)-quinoxalinedione] came in with a melting point of 286 to 287 °C.

In turn, `Cn1ncnc1-c1c(Cl)c(Cl)cc2[nH]c(=O)c(=O)[nH]c12` (hydrate or solvate) [Example 20] registered a melting point above 300 °C.

In the case of `O=c1[nH]c2cc(Cl)c(Cl)c(-c3ccncc3)c2[nH]c1=O` [Example 1, 6,7-Dichloro-5-(4-pyridyl)-2,3(1H,4H)-quinoxalinedione], the melting point was above 300 °C.

The compound `COC(=O)Cn1nnnc1-c1c(Cl)c(Cl)cc2[nH]c(=O)c(=O)[nH]c12` [Example 108, 6,7-Dichloro-5-(1-methoxycarbonylmethyltetrazol-5-yl)-2,3(1H,4H)-quinoxalinedione] displayed a melting point of 281 to 283 °C.

The compound `COCc1nnc(-c2cccnc2)n1-c1c(Cl)c(C)cc2[nH]c(=O)c(=O)[nH]c12` [Example 109, 6-Chloro-7-methyl-5-[5-methoxymethyl-3-(3-pyridyl)-4H-1,2,4-triazol-4-yl]-2,3(1H,4H)-quinoxalinedione] displayed a melting point of 229 to 231 °C.

Turning to `COCc1nnc(-c2cccnc2)n1-c1c(C)c(Cl)cc2[nH]c(=O)c(=O)[nH]c12` [Example 110, 7-Chloro-6-methyl-5-[5-methoxymethyl-3-(3-pyridyl)-4H-1,2,4-triazol-4-yl]-2,3(1H,4H)-quinoxalinedione], the melting point was above 300 °C.
